# Earlier results as cited in patent publication US7208285B2 (priority 2001, dated 2007).
# Molecular target: BoNT/A (Clostridium botulinum, UniProt P0DPI1)
# Sequence (P0DPI1 whole entry, looked up): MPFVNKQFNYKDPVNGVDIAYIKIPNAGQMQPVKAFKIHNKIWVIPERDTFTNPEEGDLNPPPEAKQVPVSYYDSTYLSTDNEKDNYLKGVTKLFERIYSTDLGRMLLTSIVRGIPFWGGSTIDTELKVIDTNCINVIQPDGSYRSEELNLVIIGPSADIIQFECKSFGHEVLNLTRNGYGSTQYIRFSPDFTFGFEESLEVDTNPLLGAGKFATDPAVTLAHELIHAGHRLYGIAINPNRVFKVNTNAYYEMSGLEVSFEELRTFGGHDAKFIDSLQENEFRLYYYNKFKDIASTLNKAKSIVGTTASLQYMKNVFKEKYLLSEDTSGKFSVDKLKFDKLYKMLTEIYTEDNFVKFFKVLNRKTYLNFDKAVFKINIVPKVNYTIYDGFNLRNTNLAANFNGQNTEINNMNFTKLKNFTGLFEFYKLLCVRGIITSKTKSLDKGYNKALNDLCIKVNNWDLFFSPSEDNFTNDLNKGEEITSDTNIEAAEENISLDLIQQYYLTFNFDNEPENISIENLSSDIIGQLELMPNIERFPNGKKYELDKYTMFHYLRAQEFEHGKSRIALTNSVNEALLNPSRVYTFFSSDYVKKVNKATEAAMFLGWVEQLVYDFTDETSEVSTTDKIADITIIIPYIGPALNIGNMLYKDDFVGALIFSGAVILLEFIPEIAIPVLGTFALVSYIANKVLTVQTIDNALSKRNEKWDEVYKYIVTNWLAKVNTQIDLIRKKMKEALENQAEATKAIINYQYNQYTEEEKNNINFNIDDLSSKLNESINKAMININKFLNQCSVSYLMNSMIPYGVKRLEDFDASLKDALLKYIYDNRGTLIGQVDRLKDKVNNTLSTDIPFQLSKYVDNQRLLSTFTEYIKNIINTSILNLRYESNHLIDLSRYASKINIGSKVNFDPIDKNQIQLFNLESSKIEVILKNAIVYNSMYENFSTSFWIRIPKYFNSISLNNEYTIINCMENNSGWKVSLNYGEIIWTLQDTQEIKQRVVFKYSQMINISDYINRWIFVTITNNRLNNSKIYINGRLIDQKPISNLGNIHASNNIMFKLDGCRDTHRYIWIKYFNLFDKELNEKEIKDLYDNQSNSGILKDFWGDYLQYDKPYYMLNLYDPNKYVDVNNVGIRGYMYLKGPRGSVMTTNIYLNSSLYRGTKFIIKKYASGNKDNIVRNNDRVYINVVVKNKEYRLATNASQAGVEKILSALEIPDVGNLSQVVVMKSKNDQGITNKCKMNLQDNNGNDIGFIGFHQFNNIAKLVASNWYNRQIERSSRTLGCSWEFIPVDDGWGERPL
Sequence,Relative Rate,relative rate of proteolysis
SNKTRIDEAAQRATKML [Peptide N10A],0.06,
SNKTRIDEANARATKML [Peptide Q11A],0.19,0.19
SNKTRIDEANBRATKML [Peptide Q11B],0.25,0.25
SNKTRIDEANNRATKML [Peptide Q11N],0.66,0.66
SNKTRIDEANQRABKML [Peptide T14B],1.20,1.20
SNKTRIDEANQRASKML [Peptide T14S],0.26,0.26
SNKTRIDEANQRATAML [Peptide K15A],0.12,0.12
SNKTRIDEANQRATK [[1–15]],0.03,
SNKTRIDEANQRATKAL [Peptide M16A],0.38,0.38
SNKTRIDEANQRATKML [[1–17]],1.00,
SNKTRIDEANQRATKXL [Peptide M16X],1.20,1.20
SNKTRIDEANQRBTKML [Peptide A13B],0.79,0.79
SNKTRIDEBNQRATKML [Peptide A9B],0.38,0.38
SNKTRIDQANQRATKML [Peptide E8Q],2.08,2.08
SNKTRINEANQRATKML [Peptide D7N],0.23,0.23
SNKTRTDEANQRATKM [[1–16]],1.17,
